Laboratory results: patent publication US9216964B2, “Hedgehog pathway modulators” (Novartis AG, priority 2008, dated 2015)

tested on: hedgehog signaling pathway; assay: Gli-Luc Reporter Assay for Hh Pathway Inhibition (TMHh-12 cells, pTA-8×Gli-Luc reporter); format: cell-based, Mouse; conditions: Mus musculus, TMHh12, Ag1.5 1 nM; read-out: Hedgehog Inhibition IC50 (nM) (Ag1.5 1 nM)
Protocol: Compounds of the present invention are assayed to evaluate their capacity to inhibit the hedgehog signaling pathway.
Gli-Luc Reporter Assay for Hh Pathway Inhibition
Mouse TM3 cells (obtained from American Type Culture Collection, ATCC, Manassas, Va.) are cultured in DMEM/F12 medium (Gibco/Invitrogen, Carlsbad, Calif.) supplemented with 5% heat inactivated horse serum and 2.5% FBS (Gibco/Invitrogen, Carlsbad, Calif.), 50 unit/mL penicillin and 50 μg/mL of streptomycin (Gibco/Invitrogen, Carlsbad, Calif.) at […] with 5% CO2 in air atmosphere. TM3 cells were transfected with pTA-8×Gli-Luc reporter plasmid. A stably transfected clone termed TMHh-12 was selected. […] To evaluate the IC50s of the antagonists, 8000 TMHh-12 cells were plated into each wells in 384-well plates with 50% DMEM/F12 medium supplemented with 2% FBS. After 12 hours, Hh pathway is activated by adding recombinant mouse Shh protein (expressed in E. coli, 8 μg/mL) or by adding Smo agonists. The testing compounds are added into plates with different concentrations. After 48 hours, the firefly luciferase luciferase activities are assayed with the Bright-Glo™ Luciferase Assay System (Promega, Madison, Wis.). The IC50 is measured when the effect of the compound reduces the luminescence signal by 50%. Toxicity of these compounds are evaluated in TM3 cells using CellTiter Glo assays or by TM3-Luc cell line (a TM3 cell stably transfected with a constitutive luciferase expression vector).

IC50 [nM]	Compound
59	Cc1ccc(Nc2cccc3c2CCN(S(C)(=O)=O)C3)cc1-c1nc2cnc(N(C)C)cc2[nH]1 [Compound 103]
0.0017	O=C(NCCO)N1CCc2c(cccc2Nc2ccc(Cl)c(-c3ncc(-c4ccccc4)[nH]3)c2)C1 [Compound 42]

same assay, conditions: Mus musculus, TMHh12, enzymatic and cellular assays for the inhibition of hedgehog signaling pathways; read-out: IC50 Ranges

Compound	IC50 [nM]
Cc1ccc(Nc2cccc3c2CCN(CC(C)(C)F)C3)cc1C(=O)Nc1ccccc1 [Compound 221]	1 to 10
Cc1ccc(Nc2cccc3c2CCN(S(C)(=O)=O)C3)cc1-c1ccc(C(=O)NCC(C)O)cc1 (centres unmarked) [Compound 148]	100 to 1000
Cc1ccc(Nc2cccc3c2CCN(CCC(F)(F)F)C3)cc1-c1ccc(C#N)cn1 [Compound 196]	1 to 10
CCN1CCC(N2CCc3c(Nc4ccc(Cl)c(-c5ncc(-c6ccccc6)[nH]5)c4)cccc3C2=O)CC1 [Compound 32]	1 to 10
CCOc1ccc(-c2nc(Nc3cccc4c3CCN(S(=O)(=O)C(C)C)C4)ccc2C)nn1 [Compound 328]	1 to 10
Cc1ccc(Nc2cccc3c2CCN(CC(C)(C)O)C3)cc1-c1ccc(C#N)cn1 [Compound 199]	1 to 10
Cc1ccc(Nc2cccc3c2CCN(S(C)(=O)=O)C3)cc1-c1nc2cnc(N(C)C)cc2[nH]1 [Compound 103]	10 to 100
CC(C)N1CCC(N2CCc3c(cccc3Nc3ccc(Cl)c(-c4ncc(-c5ccccc5)[nH]4)c3)C2)CC1 [Compound 36]	0.001 to 1
CCOc1cnc(-c2nc(Nc3cccc4c3CCN(S(=O)(=O)CC)C4)ccc2C)cn1 [Compound 330]	1 to 10
Cc1ccc(Nc2cccc3c2CCN(S(C)(=O)=O)C3)cc1-c1ccc(-c2ccccc2)cc1 [Compound 109]	100 to 1000
O=C(NCCO)N1CCc2c(cccc2Nc2ccc(Cl)c(-c3ncc(-c4ccccc4)[nH]3)c2)C1 [Compound 42]	0.001 to 1
Cc1ccc(Nc2cccc3c2CCN(C(=O)C(C)(CO)CO)C3)cc1-c1nc2ccccc2[nH]1 [Compound 70]	0.001 to 1
CNc1ncc2nc(-c3cc(Nc4cccc5c4CCN(S(C)(=O)=O)C5)ccc3C)sc2n1 [Compound 94]	10 to 100
Cc1ccc(-c2nc(Nc3cccc4c3CCN(S(C)(=O)=O)C4)ccc2Cl)nc1 [Compound 273]	0.001 to 1
CS(=O)(=O)N1CCc2c(cccc2Nc2ccc(Cl)c(C(=O)Nc3ccccc3)n2)C1 [Compound 226]	0.001 to 1
CS(=O)(=O)N1CCc2c(cccc2Nc2cnc(Cl)c(-c3ccc(C#N)cc3)c2)C1 [Compound 175]	10 to 100
CC(C)(CO)C(=O)N1CCc2c(cccc2Nc2ccc(Cl)c(-c3ncc(-c4ccccc4)[nH]3)c2)C1 [Compound 14]	0.001 to 1
COC(=O)c1ccc(-c2cc(Nc3cccc4c3CCN(S(C)(=O)=O)C4)ccc2C)cc1 [Compound 141]	100 to 1000
C[C@H](O)C(=O)N1CCc2c(cccc2Nc2ccc(Cl)c(-c3ncc(-c4ccccc4)[nH]3)c2)C1 [Compound 20]	1 to 10

Second part, the compound after the results:

IC50 [nM]	Compound
0.001 to 1	Cc1ccc(Nc2cccc3c2CCN(CCC(F)(F)F)C3)cc1-c1ccc(F)cn1 [Compound 252]
0.001 to 1	CC(=O)N1CCC(N2CCc3c(cccc3Nc3ccc(Cl)c(-c4ncc(-c5ccccc5)[nH]4)c3)C2)CC1 [Compound 11]
10 to 100	COc1ccnc(-c2cc(Nc3cccc4c3CCN(S(C)(=O)=O)C4)ccc2C)n1 [Compound 239]
0.001 to 1	Cc1ccc(-c2cc(Nc3cccc4c3CCN([C@H]3CCS(=O)(=O)C3)C4)ccc2C)nc1 [Compound 280]
1 to 10	CCOc1cnc(-c2cc(Nc3cccc4c3CCN(C3CS(=O)(=O)C3)C4)ccc2C)cn1 [Compound 313]
0.001 to 1	Cc1ccc(-c2cc(Nc3cccc4c3CCN(CC(C)(C)F)C4)ccc2C)nc1 [Compound 200]
0.001 to 1	Cc1ccc(Nc2cccc3c2CCN([C@H]2CCS(=O)(=O)C2)C3)cc1-c1ncccc1F [Compound 286]
10 to 100	CS(=O)(=O)N1CCc2c(cccc2Nc2ccc(F)c(-c3ccc(C#N)cc3)c2)C1 [Compound 131]
1 to 10	CN1CCC(N2CCc3c(cccc3Nc3ccc(Cl)c(-c4ncc(-c5ccccc5)[nH]4)c3)C2)CC1 [Compound 41]
100 to 1000	Cc1ccc(Nc2cccc3c2CCN(S(C)(=O)=O)C3)cc1Oc1ccccn1 [Compound 214]
1 to 10	Cc1ccc(Nc2cccc3c2CCN(C[C@H](O)CO)C3)cc1-c1ccc(F)cn1 [Compound 195]
